The text below walks through data of PMC6915728 (Nature Communications, 2019).

Assay [1] concerns E. coli K12 BW25113 carrying the pooled ASKA overexpression plasmid library (~4400 ORFs). In words: Chemical-genetic profiling: pooled competitive growth of the ASKA gene-overexpression library with and without AMP, deep sequencing readout. The class given is cell-based, Escherichia coli. The note with it: whether the literature phenotype was captured by the overexpression screen. The source says:
We generated chemical-genetic interaction profiles for a diverse set of AMPs (Table 1) by screening them against a comprehensive library of gene overexpressions in E. coli[21]. Increasing gene dosage is a widely applied approach to reveal the targets of small-molecule antibiotics[22],[23]. It also informs on the ‘latent resistome’, that is, the collection of genes where a change from native expression level enhances resistance to a particular drug[24]. We applied a sensitive competition assay by monitoring growth of a pooled plasmid library, overexpressing all the E. coli ORFs (Fig. 1a), as we reported earlier. Specifically, E. coli cells carrying the pooled plasmid collection were grown in the presence or absence of one of the 15 AMPs tested, at a sub-inhibitory concentration that increased the doubling time of the whole population by 2-fold. Following 12 generations of growth, the plasmid pool was isolated from each selection and the relative abundance of each plasmid was determined by a deep sequencing readout (see Methods).
We carried out chemical-genetic profiling to determine the impact of the overexpression of each E. coli ORF on bacterial susceptibility to each of the 15 different AMPs. To this end, we used the complete set of E. coli K-12 Open Reading Frame Archive (ASKA) plasmid library (GFP minus) where each E. coli ORF is cloned into a high copy number expression plasmid (pCA24N-ORFGFP(-)). Prior to screening, the ASKA library was grown in the original host strain E. coli K-12 AG1 in 96-well plates (growth conditions: 37 °C, 280 rpm, LB medium). An equal aliquot of each member of the ASKA library (each well of the 96-well plates) was pooled together and the plasmid DNA (pCA24N-ORF-GFP(-)) was isolated and transformed into E. coli K12 BW25113 strain[51]. To obtain a negative control strain not having any overexpressed gene, the plasmid without a cloned ORF (pCA24N-noORF) was also transformed into the same E. coli strain. Then, on the pooled collection, we applied a previously reported competitive growth assay. Specifically, the pooled overexpression library and the control strain were grown in parallel in MS medium supplemented with 20 µg per ml chloramphenicol and the overexpression was induced by 100 µM isopropyl-ß-D-thiogalactopyranoside (IPTG). After 1 h induction, ~5 × 10^5 bacterial cells from the library were inoculated into each well of a 96-well microtiter plate containing a concentration gradient of an AMP in the MS medium supplemented with 20 µg per ml chloramphenicol and 100 µM IPTG. At the same time, both the library and the control strain with the empty plasmid were grown in the absence of any AMPs. We took special care to grow both of these samples in the exact same conditions as the samples in the presence of AMPs. Bacterial growth was monitored in a microplate reader (Biotek Synergy 2) for 24 h. At the end of the exponential growth phase, we selected those wells in which the doubling time of the cell population was increased by 2-fold. Then, from these wells, cells were split into four equal proportion and each was transferred into 20 mL of MS medium supplemented with the corresponding AMP in four different concentrations in the range that slowed down growth by two-fold in the microtitre plate. […] The rationale for this 2-step process was to maintain competition in exponential phase for 12 generations of growth, efficiently control the growth rate in a reproducible manner and obtain the plasmid pool with standard DNA isolation protocol (innuPREP plasmid mini Kit, Analytik Jena AG) in a yield that is enough for the downstream analysis. The cultures were vigorously shaken along the entire protocol to make sure that the cultures are completely homogeneous and therefore biasing interactions between clones (such as trans-resistance) was minimized. […]

Assay [2] has as its system E. coli BW25113 overexpression strains (ASKA plasmids). In words: Minimum inhibitory concentration (MIC), serial broth dilution, single-gene overexpression strains vs empty-vector control. The class given is cell-based, Escherichia coli. The conditions noted are these: for Average relative change in MIC: mlaD overexpression strain relative to control (wild-type+empty vector), 3 replicates each, from optical density values of serial dilution plates, AMP in µg ml-1; for Relative MIC: broth dilution, MS medium, 100 µM IPTG, 30 °C, 20-24 h, OD600, 3 replicates. Summed up:
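E. coli overexpression strains grown in MS medium with chloramphenicol, induced with 100 µM IPTG for 1 h at 30 °C, then about half-million cells inoculated into 12-step AMP dilutions (typically 1.2-fold steps). OD600 read after 20–24 h at 30 °C with shaking; triplicate strains compared with empty-vector control.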

The test system of assay [3] is E. coli BW25113 ΔmlaD. As to the kind of experiment: MIC, serial broth dilution, mlaD knockout strain vs wild type. Type of assay: cell-based, Escherichia coli. The procedure:
What could be the mechanism behind the antagonistic action of this pathway on membrane- versus intracellular-targeting AMPs? Since MlaD is part of a protein complex, it may lead to a loss-of-function effect upon overexpression[41],[42]. To test this, we asked whether overexpression and deletion of mlaD cause similar changes in susceptibility to a representative set of membrane- and intracellular-targeting AMPs.
Minimum inhibitory concentrations (MIC) were determined with a standard serial broth dilution technique with a minor modification. Specifically, instead of a two-fold dilution series, smaller AMP concentration steps were used (typically 1.2-fold) for two reasons. […] Second, gene overexpressions caused typically only small changes in the MICs of AMPs and therefore higher resolution was required. The protocol was as follows. From a stock solution of an AMP, 12-steps serial dilution was prepared in fresh MS medium in 96-well microtiter plates. Each AMP was represented in 11 different concentrations (3 wells per AMP concentration per strain). Three wells contained only medium to check the growth in the absence of AMP. After overnight growth in MS medium supplemented with chloramphenicol, bacterial strains were diluted 20-fold into fresh MS medium and grown until the cell density reached OD600 ~1. Cells were induced by 100 µM of IPTG and incubated for 1 h at 30 °C with continuous shaking at 300 rpm. Following incubation, approximately half-million cells were inoculated into the wells of the 96-well microtiter plate with a 96‐pin replicator. We used three independent replicates for each strain and the corresponding control. Two rows in the 96-well plate contained only MS medium in order to obtain the background OD value of the medium. Plates were incubated at 30 °C with continuous shaking at 300 rpm. After 20–24 h of incubation, OD600 values were measured in a microplate reader (Biotek Synergy 2).
A mlaD knockout strain of E. coli BW25113 carrying a kanamycin resistance cassette in the position of the gene was selected from the KEIO collection. The resistance marker was removed using plasmid-borne (pFT-A) expression of FLP recombinase leading to excision of the kanamycin resistance cassette. Cassette excision was verified by a polymerase chain reaction using the primers mlaD_del_ver_Fw (5′- […]) and mlaD_del_ver_Rev (5′- […]).
Supplementary Figure 13. […] The bacterial susceptibility of the mutant to AMPs was tested by MIC determination. Growth is shown relative to growth in the absence of the corresponding AMP. The blue line represents the mlaD knockout strain and the orange line represents the control strain (wild-type E. coli BW25113). Error bars indicate the standard errors based on three biological replicates. Source data are provided in the Source Data file.
In general terms: Dilution methods test growth across graded concentrations, often in twofold steps.

Assay [4] deals with bacterial membrane. The conditions noted are these: literature mining; ref superscript numbers in the cell, listed in Supplementary Data 7 sheet References; cited from earlier work. From the text: Supplement 41467_2019_13618_MOESM10_ESM.xlsx, sheet "AMP details" | column: Pore formation
The mark [5] stands for this setting: overexpression strain hyfA, MIC of overexpression strain / MIC of empty-plasmid control.
Setting [6] is: overexpression strain mlaC, MIC of overexpression strain / MIC of empty-plasmid control.
Where [7] appears, read: overexpression strain mlaD, MIC of the overexpression strain / MIC of the control strain (wild-type carrying the empty plasmid).
[8] abbreviates: overexpression strain murA, MIC of overexpression strain / MIC of empty-plasmid control.
Setting [9] is: overexpression strain rpoH, MIC of overexpression strain / MIC of empty-plasmid control.
Where [10] appears, read: overexpression strain uhpC, MIC of overexpression strain / MIC of empty-plasmid control.
[11] abbreviates: overexpression strain ytjB, MIC of overexpression strain / MIC of empty-plasmid control.
Setting [12] is: mlaD deletion strain relative to control (E. coli BW25113), 3 replicates each, from optical density values of serial dilution plates, AMP in µg ml-1.
The mark [13] stands for this setting: overexpression strain mzrA, MIC of overexpression strain / MIC of empty-plasmid control.
Where [14] appears, read: overexpression strain nikB, MIC of overexpression strain / MIC of empty-plasmid control.
[15] abbreviates: overexpression strain gadW, MIC of overexpression strain / MIC of empty-plasmid control.

Regarding “GLRKRLRKFRNKIKEKLKKIGQKIQGFVPKLAPRTDY [CAP18, antimicrobial peptide, source rabbit; disrupts cell membrane; cluster C3]”, in assay [1] (gene waaY), the “Overexpression phenotype, Chemical-genetic profile” value is listed as “Confirmed”. The “Average relative change in MIC” value is 1.86 in assay [2] and 2.25 in assay [3] (setting [12]). Moreover, the “Relative MIC” value in assay [2] (setting [5]) is reported as 0.72; in assay [2] (setting [6]) it was 2.1; in assay [2] (setting [7]), 2.42; in assay [2] (setting [8]), more than 2.25; in assay [2] (overexpression strain narY, MIC of overexpression strain / MIC of empty-plasmid control), 0.76; in assay [2] (setting [9]), more than 2.25. Further, the “Relative MIC” value in assay [2] (setting [10]) is 1.66; in assay [2] (overexpression strain yhbJ, MIC of overexpression strain / MIC of empty-plasmid control), more than 2.25; in assay [2] (setting [11]), 1.72. Moreover, the “Pore formation (whether AMP makes pores in the bacterial membrane)” value (shortened to “Pore formation”) in assay [4] is “Yes35”.
As to “ILPWKWPWWPWRR [IND, Indolicidin, antimicrobial peptide from bovine neutrophils; cluster C3]”, the “Average relative change in MIC” value came out at 0.82 in assay [2] and 0.71 in assay [3] (mlaD deletion strain vs control E. coli BW25113, average of 3 replicates). Further, the “Relative MIC” value was 0.76 in assay [2] (overexpression strain cvpA, MIC of overexpression strain / MIC of empty-plasmid control); more than 1.2 in assay [2] (setting [5]); 0.78 in assay [2] (setting [7]); 0.8 in assay [2] (setting [8]); 0.62 in assay [2] (setting [13]); 0.76 in assay [2] (setting [14]). The “Relative MIC” value in assay [2] (overexpression strain ptsN, MIC of overexpression strain / MIC of empty-plasmid control) is recorded as 0.76; in assay [2] (setting [9]) it was 0.64; in assay [2] (setting [10]), 0.8; in assay [2] (overexpression strain yiaJ, MIC of overexpression strain / MIC of empty-plasmid control), 0.8; in assay [2] (setting [11]) it was 0.8. Moreover, the “Pore formation” value in assay [4] was “Yes39”.
For “LLGDFFRKSKEKIGKEFKRIVQRIKDFLRNLVPRTES [LL37, LL-37 human cathelicidin, human host-defense peptide; disrupts cell membrane; cluster C2]”, the “Overexpression phenotype, Chemical-genetic profile” value in assay [1] (gene ompT) was “Confirmed”. Besides, the “Average relative change in MIC” value in assay [2] stood at 2.42; in assay [3] (setting [12]) it was 2.25. The “Relative MIC” value in assay [2] (setting [15]) amounted to 0.79; in assay [2] (setting [5]), 0.74; in assay [2] (overexpression strain lptB, MIC of overexpression strain / MIC of empty-plasmid control), 1.2; in assay [2] (setting [6]), 1.43; in assay [2] (setting [7]) it was 2.5; in assay [2] (overexpression strain yijE, MIC of overexpression strain / MIC of empty-plasmid control), 1.2. The “Relative MIC” value in assay [2] (setting [11]) is given as 1.2. Moreover, the “Pore formation” value in assay [4] is “Yes22”.
As to “RWCFRVCYRGICYRKCR [TPII, Tachyplesin II, antimicrobial peptide from Japanese horseshoe crab; disrupts cell membrane; cluster C1]”, the “Average relative change in MIC” value in assay [2] worked out at 1.47; in assay [3] (setting [12]), 1.35. The “Relative MIC” value in assay [2] (setting [15]) was determined as 1; in assay [2] (setting [6]) it was 1; in assay [2] (setting [7]) it was 1.47; in assay [2] (setting [13]) it was 1.27; in assay [2] (setting [14]), 0.8. Besides, the “Pore formation” value in assay [4] was “Yes1”.
